Assay results reported in ChEMBL document CHEMBL1132706 (J Med Chem, 1999).

Experiments:
[1] = target: T1, Human immunodeficiency virus type 1 integrase (Human immunodeficiency virus 1, UniProt Q7ZJM1)
Description: Inhibition of HIV-1 integrase by radiolabeled oligonucleotide-based assay integration

[2] = target: T1, Human immunodeficiency virus type 1 integrase; remark: listed apart in the source
Description: Compound was evaluated for the inhibitory concentration against HIV-1 integrase by radiolabeled oligonucleotide-based assay 3''-processing

CEM-SS [3] = assay: Compound was evaluated for the cytoprotection of CEM-SS cells by XTT cytoprotection assay through the NCI AIDS Screen; Not reached due to cytotoxicity; format: functional, cell-based, Homo sapiens
CEM-SS [4] = assay: Compound was evaluated for the cytoprotection by XTT cytoprotection assay through the NCI AIDS Screen; format: functional, cell-based; details: Homo sapiens
CEM-SS [5] = assay: Compound was evaluated for the effect of Order of Addition on Cytoprotection against HIV1-RF at dilution 333, Add at infection; format: functional, Homo sapiens
CEM-SS [6] = assay: Concentration of compound required to protect 50% of CEM-SS cells against retroviral cytopathic effects of HIV-RF on 6th day at dil 1:400; format: functional, cell-based; details: Homo sapiens
CEM-SS [7] = assay: Concentration of compound required to protect 50% of CEM-SS cells against retroviral cytopathic effects of HIV-RF on 3rd day at dil 1:100; format: functional, cell-based; details: Homo sapiens
CEM-SS [8] = assay: Compound was evaluated for the effect of Order of Addition on Cytoprotection against HIV1-RF at dilution 1000, Pretreat and add 10 uM; format: functional, Homo sapiens
MT4 [9] = assay: Concentration of compound required to protect 50% of MT-4 cells against retroviral cytopathic effects of HIV-1 ([…]); format: functional, cell-based; details: Homo sapiens
CEM-SS [10] = assay: Concentration of compound required to protect 50% of CEM-SS cells against retroviral cytopathic effects of HIV-RF on 6th day at dil 1:50; format: functional, cell-based; details: Homo sapiens
CEM-SS [11] = assay: Compound was evaluated for the effect of Order of Addition on Cytoprotection against HIV1-RF at dilution 1000, Pretreat and add 1 uM; format: functional, Homo sapiens
CEM-SS [12] = assay: Compound was evaluated for the effect of Order of Addition on Cytoprotection against HIV1-RF at dilution 1000, Pretreat with 100 uM; format: functional, Homo sapiens
[13] = Compound was evaluated for the relative inhibition of Viral infection in MAGI cells at concentration 1 mM, using assay 1; format: functional, Homo sapiens
CEM-SS [14] = assay: Concentration of compound required to protect 50% of CEM-SS cells against retroviral cytopathic effects of HIV-RF on 6th day at dil 1:200; format: functional, cell-based; details: Homo sapiens
CEM-SS [15] = assay: Concentration of compound required to protect 50% of CEM-SS cells against retroviral cytopathic effects of HIV-RF on 3rd day at dil 1:200; format: functional, cell-based; details: Homo sapiens
MT4 [16] = assay: Concentration of compound required to reduce MT-4 cell viability by 50%; format: functional, cell-based; details: Homo sapiens
[17] = Compound was evaluated for the relative inhibition of Viral infection in MAGI cells at concentration 10 mM, using assay 1; format: functional, Homo sapiens
CEM-SS [18] = assay: Compound was evaluated for the effect of Order of Addition on Cytoprotection against HIV1-RF at dilution 100, Pretreat with 100 uM; format: functional, Homo sapiens
[19] = Compound was evaluated for the relative inhibition of Viral infection in MAGI cells at concentration 0.1 uM, using assay 3
CEM-SS [20] = assay: Compound was evaluated for the effect of Order of Addition on Cytoprotection against HIV1-RF at dilution 333, Pretreat with 100 uM
[21] = Compound was evaluated for the relative Viral infection in MAGI cells at concentration 100 mM, using assay 2
CEM-SS [22] = assay: Compound was evaluated for the cytoprotection of CEM-SS cells by XTT cytoprotection assay through the NCI AIDS Screen; format: functional, cell-based; details: Homo sapiens
CEM-SS [23] = assay: Compound was evaluated for the effect of Order of Addition on Cytoprotection against HIV1-RF at dilution 100, Pretreat and add 10 uM; format: functional, Homo sapiens
CEM-SS [24] = assay: Compound was evaluated for the effect of Order of Addition on Cytoprotection against HIV1-RF at dilution 1000, Add at infection; format: functional, Homo sapiens
CEM-SS [25] = assay: Concentration of compound required to protect 50% of CEM-SS cells against retroviral cytopathic effects of HIV-RF on 9th day at dil 1:100; format: functional, cell-based; details: Homo sapiens
CEM-SS [26] = assay: Compound was evaluated for the effect of Order of Addition on Cytoprotection against HIV1-RF at dilution 333, Pretreat and add 10 uM; format: functional, Homo sapiens
CEM-SS [27] = assay: Concentration of compound required to protect 50% of CEM-SS cells against retroviral cytopathic effects of HIV-RF on 3rd day at dil 1:50; format: functional, cell-based; details: Homo sapiens
MT4 [28] = assay: Concentration of compound required to protect 50% of MT-4 cells against retroviral cytopathic effects of HIV-2 (ROD); format: functional, cell-based; details: Homo sapiens
CEM-SS [29] = assay: Concentration of compound required to protect 50% of CEM-SS cells against retroviral cytopathic effects of HIV-RF on 9th day at dil 1:400; format: functional, cell-based; details: Homo sapiens
[30] = Compound was evaluated for the relative inhibition of Viral infection in MAGI cells at concentration 10mM, using assay 2; format: functional, Homo sapiens
[31] = Compound was evaluated for the relative inhibition of Viral infection in MAGI cells at concentration 10 mM, using assay 3; format: functional, Homo sapiens
[32] = Compound was evaluated for the relative inhibition of Viral infection in MAGI cells at concentration 100 mM, using assay 1; format: functional, Homo sapiens
CEM-SS [33] = assay: Concentration of compound required to protect 50% of CEM-SS cells against retroviral cytopathic effects of HIV-RF on 6th day at dil 1:100; format: functional, cell-based; details: Homo sapiens
CEM-SS [34] = assay: Compound was evaluated for the effect of Order of Addition on Cytoprotection against HIV1-RF at dilution 100, Pretreat and add 1 uM; format: functional, Homo sapiens
CEM-SS [35] = assay: Compound was evaluated for the effect of Order of Addition on Cytoprotection against HIV1-RF at dilution 333,Pretreat and add 1 uM; format: functional, Homo sapiens
CEM-SS [36] = assay: Concentration of compound required to protect 50% of CEM-SS cells against retroviral cytopathic effects of HIV-RF on 9th day at dil 1:50; format: functional, cell-based; details: Homo sapiens
CEM-SS [37] = assay: Compound was evaluated for the effect of Order of Addition on Cytoprotection against HIV1-RF at dilution 100, Add at infection; format: functional, Homo sapiens
CEM-SS [38] = assay: Concentration of compound required to protect 50% of CEM-SS cells against retroviral cytopathic effects of HIV-RF on 9th day at dil 1:200; format: functional, cell-based; details: Homo sapiens

T1 sequence (Q7ZJM1 whole entry): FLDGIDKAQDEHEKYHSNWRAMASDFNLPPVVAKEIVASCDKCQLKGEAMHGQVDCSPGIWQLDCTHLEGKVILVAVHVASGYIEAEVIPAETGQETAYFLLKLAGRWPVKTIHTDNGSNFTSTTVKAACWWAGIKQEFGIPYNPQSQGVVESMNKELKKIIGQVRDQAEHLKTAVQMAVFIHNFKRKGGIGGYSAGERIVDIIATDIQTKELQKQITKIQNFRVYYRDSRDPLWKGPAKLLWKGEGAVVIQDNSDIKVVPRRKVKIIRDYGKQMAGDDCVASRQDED

For `COC(=O)[C@@H](CNC(=O)/C=C/c1ccc(OC(C)=O)c(OC(C)=O)c1)NC(=O)/C=C/c1ccc(OC(C)=O)c(OC(C)=O)c1`, the IC50 [1] was 10 µM and the IC50 [2] was 10.9 µM.

Work on `CC(=O)Oc1ccc(/C=C/C(=O)OCC(OC(=O)/C=C/c2ccc(OC(C)=O)c(OC(C)=O)c2)C(=O)O)cc1OC(C)=O` (configuration not stated) yielded an IC50 [1] of 2.8 µM and an IC50 [2] of 2.1 µM.

For `COc1ccc(/C=C/C(=O)NC[C@@H](NC(=O)/C=C/c2ccc(OC)c(OC)c2)C(=O)O)cc1OC`, the IC50 [1] was > 1000 µM and the IC50 [2] was > 1000 µM.

In the case of `COC(=O)C(COC(=O)/C=C/c1ccc(OC(C)=O)c(OC(C)=O)c1)NC(C)=O` (configuration not stated), the IC50 [1] is reported as > 333 µM and the IC50 [2] is reported as > 333 µM.

In the case of `O=C(/C=C/c1ccc(O)c(O)c1)OCCOC(=O)/C=C/c1ccc(O)c(O)c1`, the EC50 (CEM-SS [3]) is reported as “Not reached”, the IC50 [1] is reported as 0.4 µM and the IC50 (CEM-SS [4]) is reported as 10 µM. For the same molecule, the IC50 [2] was 0.4 µM.

`CC(=O)Oc1ccc(/C=C/C(=O)NCC(NC(=O)/C=C/c2ccc(OC(C)=O)c(OC(C)=O)c2)C(=O)O)cc1OC(C)=O` (configuration not stated) gave an IC50 [1] of 4.1 µM and an IC50 [2] of 4.1 µM.

Work on `COC(=O)C(COC(=O)/C=C/c1ccc(OC(C)=O)c(OC(C)=O)c1)NC(=O)/C=C/c1ccc(OC(C)=O)c(OC(C)=O)c1` (configuration not stated) yielded an IC50 [1] of 3.2 µM and an IC50 [2] of 2.5 µM.

With `CC(=O)Oc1ccc(/C=C/C(=O)O[C@H](C(=O)O)[C@H](OC(=O)/C=C/c2ccc(OC(C)=O)c(OC(C)=O)c2)C(=O)O)cc1OC(C)=O` the Control (CEM-SS [5]) was 81%, the EC50 (CEM-SS [6]) was 19.6 µM and the EC50 (CEM-SS [7]) was > 50 µM. For the same molecule, the Control (CEM-SS [8]) was 38%, the EC50 (MT4 [9]) was 3.9 µM and the EC50 (CEM-SS [10]) was > 50 µM. For the same molecule, the Control (CEM-SS [11]) was 17%, the Control (CEM-SS [12]) was 51% and the relative infection [13] was 83%. For the same molecule, the EC50 (CEM-SS [14]) was 22.6 µM, the EC50 (CEM-SS [15]) was > 50 µM and the IC50 (MT4 [16]) was 60 µM. It also gave a relative infection [17] of 88%, a Control (CEM-SS [18]) of 120% and a relative infection [19] of 91%. The Control (CEM-SS [20]) was 163%, the IC50 [1] was 4.6 µM and the relative infection [21] was 5%. It also gave an EC50 (CEM-SS [22]) of 21 µM, an IC50 (CEM-SS [22]) of 23 µM and a Control (CEM-SS [23]) of 149%. For the same molecule, the Control (CEM-SS [24]) was 60%, the EC50 (CEM-SS [25]) was > 50 µM and the Control (CEM-SS [26]) was 39%. For the same molecule, the EC50 (CEM-SS [27]) was > 50 µM, the EC50 (MT4 [28]) was 5.1 µM and the EC50 (CEM-SS [29]) was 29.4 µM. For the same molecule, the relative infection [30] was 76%, the relative infection [31] was 55% and the relative infection [32] was 6%. The EC50 (CEM-SS [33]) was > 50 µM, the Control (CEM-SS [34]) was 100% and the Control (CEM-SS [35]) was 57%. The EC50 (CEM-SS [36]) was > 50 µM, the Control (CEM-SS [37]) was 141% and the EC50 (CEM-SS [38]) was > 50 µM. The IC50 [2] was 33.3 µM.

`CC(=O)NC(COC(=O)/C=C/c1ccc(O)c(O)c1)C(=O)O` (configuration not stated) showed an IC50 [1] of 111 µM and an IC50 [2] of 333 µM.

In the case of `CC(=O)Oc1ccc(/C=C/C(=O)OCCOC(=O)/C=C/c2ccc(OC(C)=O)c(OC(C)=O)c2)cc1OC(C)=O`, the IC50 [1] is reported as > 100 µM, the IC50 (CEM-SS [22]) is reported as 6.7 µM and the IC50 [2] is reported as > 100 µM.

For `COC(=O)[C@@H](CNC(=O)/C=C/c1ccc(OC)c(OC)c1)NC(=O)/C=C/c1ccc(OC)c(OC)c1`, the IC50 [1] was > 1000 µM and the IC50 [2] was > 1000 µM.

Molecule `O=C(/C=C/c1ccc(O)c(O)c1)OCC(OC(=O)/C=C/c1ccc(O)c(O)c1)C(=O)O` (configuration not stated) has an IC50 [1] of 1.7 µM and an IC50 [2] of 4.2 µM.
